Reference: publication PMC6934184, “Selective DNA-PKcs inhibition extends the therapeutic index of localized radiotherapy and chemotherapy” (The Journal of Clinical Investigation, 2019)

Molecular target: T1, EPHA7 (Homo sapiens, UniProt Q15375)
T1 construct: purchased Thermo Fisher Scientific (Life Technologies) SelectScreen
Assay: SelectScreen LanthaScreen
Type: binding
Settings: read-out: % displacement
Summary of the method: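 NU5455 was profiled across the SelectScreen Broad panel of kinase activity and binding assays. Z'LYTE reactions such as CSF1R ran at apparent Km ATP, while the Adapta CAMK1 assay used ATP listed as 10. Values are given as percent.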

T1 sequence (Q15375 28-998): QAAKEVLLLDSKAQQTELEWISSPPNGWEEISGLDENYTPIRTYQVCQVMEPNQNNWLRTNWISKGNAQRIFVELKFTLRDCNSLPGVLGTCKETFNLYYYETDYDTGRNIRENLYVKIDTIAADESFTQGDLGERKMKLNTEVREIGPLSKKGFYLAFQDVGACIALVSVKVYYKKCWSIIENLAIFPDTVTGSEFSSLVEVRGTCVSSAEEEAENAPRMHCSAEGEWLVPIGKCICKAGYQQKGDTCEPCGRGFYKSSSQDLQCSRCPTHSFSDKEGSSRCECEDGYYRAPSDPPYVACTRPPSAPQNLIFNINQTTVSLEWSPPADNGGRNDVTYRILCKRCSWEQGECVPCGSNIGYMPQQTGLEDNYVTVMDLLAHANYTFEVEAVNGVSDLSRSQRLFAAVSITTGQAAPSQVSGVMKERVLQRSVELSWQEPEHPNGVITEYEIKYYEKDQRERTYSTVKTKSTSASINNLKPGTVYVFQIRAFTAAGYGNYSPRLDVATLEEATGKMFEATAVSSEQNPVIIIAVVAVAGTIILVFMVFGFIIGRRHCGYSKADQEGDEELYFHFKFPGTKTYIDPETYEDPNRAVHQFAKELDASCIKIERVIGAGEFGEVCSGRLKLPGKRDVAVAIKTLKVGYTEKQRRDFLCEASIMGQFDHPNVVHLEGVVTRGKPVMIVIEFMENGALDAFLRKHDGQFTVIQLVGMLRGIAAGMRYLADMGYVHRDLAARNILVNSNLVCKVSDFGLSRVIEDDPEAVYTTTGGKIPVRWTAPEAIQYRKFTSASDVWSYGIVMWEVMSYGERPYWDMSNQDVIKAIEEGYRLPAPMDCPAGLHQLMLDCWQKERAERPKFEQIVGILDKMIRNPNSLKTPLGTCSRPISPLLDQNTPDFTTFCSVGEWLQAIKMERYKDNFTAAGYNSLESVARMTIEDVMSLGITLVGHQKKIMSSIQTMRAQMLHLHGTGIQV

Question: With `CN(C(=O)CN1CCOCC1)c1ccc2sc3c(-c4cccc5c(=O)cc(N6CC7CCC(C6)O7)oc45)cccc3c2c1` [NU5455] as the compound, how does the inhibition at 1 µM read?
Answer: 1.2%
